In patent US8057806B2 (priority 2000, dated 2011):
Entries after “also recorded” stand apart in the source; their conditions may differ.

Tested on: M2 mutant viruses
Format: cell-based, influenza A virus

With `NC12CC3CC(CC(C3)C1)C2` [amantadine] as the compound, how does the effect on replication read?
Its effect on replication is “either not affected or inhibited only slightly; also recorded: Substantial inhibition”.
